# Patent US20200147243A1, “LIGAND COMPOUND OF ALPHA7 NICOTINIC ACETYLCHOLINE RECEPTOR AND APPLICATION THEREOF” (BEIJING NORMAL UNIVERSITY, priority 2017, published 2020)
# “And” between values parts separate entries of the source, which are not always exact repeats. Equal entries are not always repeated.
# Assays:
# [1] = Experiment of brain region distribution; settings: for Absorption, brain residual / Absorption, cerebellum / Absorption, corpus striatum / Absorption, cortex / Absorption, hippocampus / Absorption, superior and inferior colliculus / Absorption, thalamus: tail vein, female Kunming mice; for Tissue/cerebellum Ratio, corpus striatum / Tissue/cerebellum Ratio, cortex / Tissue/cerebellum Ratio, hippocampus / Tissue/cerebellum Ratio, superior and inferior colliculus / Tissue/cerebellum Ratio, thalamus: mouse brain
# [2] = Rat PET imaging (micro-PET/CT); format: in vivo; settings: female CD-1 rats, images at 15, 30, 60 min
# Method: The radioligand [^18F] II-15 (0.3 mL, 200 μCi) was injected into bodies of female CD-1 rats (180-200 g) in a manner of tail vein injection, then the rats were anesthetized with 3% isoflurane to be coma, and the rats were fixed in a prone posture on a micro-PET/CT imaging instrument (Super Argus PET 4R L/CT 180) for small animals, maintaining the rats in an anesthetic state by employing 1% isoflurane in the scanning imaging process. Image acquisition was carried out respectively 15 min, 30 min and 60 min after the administration, to observe the distribution condition of [^18F] II-15 in the brains of the rats.
# [3] = biological target: T1, α4β2 nAChR (Mus musculus, UniProt O70174+Q9ERK7); assay: Selective experiment in mouse brain, cytisine pre-injection; format: in vivo, Kunming mice; settings: 1 mg/kg cytisine s.c. 5 min in advance, 60 min after administration
# T1 construct: from tissue
# Method: The selectivity of radioligand for α4β2 nAChR was explored by subcutaneously injecting 1 mg/kg of cytisine (0.1 mL, with an equal volume of normal saline and 1,2-propanediol as solvents) 5 min in advance, whereas the selectivity for the 5-hydroxytryptamine receptor was explored by subcutaneously injecting 2 mg/kg of ondanstron (0.1 mL, with saline:DMSO=5:1 (V:V) as solvents) 10 min in advance. In the experiment, two groups of mice (n=5, Kunming females, 28-30 g) were injected with 0.1 mL (60 μCi) of [^18F]
# [4] = Lipid water partition coefficient (n-octanol / PBS pH 7.4); format: physicochemical; settings: read-out: lipid water partition coefficient log P
# [5] = In vivo distribution experiment in animals; settings: for brain/blood ratio / Absorption Amount, blood / Absorption Amount, bone / Absorption Amount, brain / Absorption Amount, heart / Absorption Amount, kidney / Absorption Amount, liver / Absorption Amount, lung / Absorption Amount, muscle / Absorption Amount, spleen: female Kunming mice; for Absorption Amount, blood / Absorption Amount, bone / Absorption Amount, brain / Absorption Amount, heart / Absorption Amount, kidney / Absorption Amount, liver / Absorption Amount, lung / Absorption Amount, muscle / Absorption Amount, spleen: tail vein
# T1 sequence (O70174 31-629): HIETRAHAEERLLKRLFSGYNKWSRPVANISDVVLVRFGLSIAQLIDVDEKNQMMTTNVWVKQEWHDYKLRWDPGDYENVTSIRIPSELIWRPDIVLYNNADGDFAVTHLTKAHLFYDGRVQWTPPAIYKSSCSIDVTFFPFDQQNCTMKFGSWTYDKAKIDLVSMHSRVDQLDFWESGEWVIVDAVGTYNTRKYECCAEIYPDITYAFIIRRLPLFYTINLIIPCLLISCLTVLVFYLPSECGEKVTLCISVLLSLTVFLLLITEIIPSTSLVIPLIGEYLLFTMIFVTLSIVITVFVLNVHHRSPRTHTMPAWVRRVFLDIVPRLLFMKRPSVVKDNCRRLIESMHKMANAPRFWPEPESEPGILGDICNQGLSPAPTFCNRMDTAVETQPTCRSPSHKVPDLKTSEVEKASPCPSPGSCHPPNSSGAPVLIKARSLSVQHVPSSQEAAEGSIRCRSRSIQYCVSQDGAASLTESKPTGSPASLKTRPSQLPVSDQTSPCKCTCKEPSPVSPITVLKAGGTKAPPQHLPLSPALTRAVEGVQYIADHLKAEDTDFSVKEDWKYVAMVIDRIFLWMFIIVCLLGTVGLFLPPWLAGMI
# T1 sequence (Q9ERK7 26-501): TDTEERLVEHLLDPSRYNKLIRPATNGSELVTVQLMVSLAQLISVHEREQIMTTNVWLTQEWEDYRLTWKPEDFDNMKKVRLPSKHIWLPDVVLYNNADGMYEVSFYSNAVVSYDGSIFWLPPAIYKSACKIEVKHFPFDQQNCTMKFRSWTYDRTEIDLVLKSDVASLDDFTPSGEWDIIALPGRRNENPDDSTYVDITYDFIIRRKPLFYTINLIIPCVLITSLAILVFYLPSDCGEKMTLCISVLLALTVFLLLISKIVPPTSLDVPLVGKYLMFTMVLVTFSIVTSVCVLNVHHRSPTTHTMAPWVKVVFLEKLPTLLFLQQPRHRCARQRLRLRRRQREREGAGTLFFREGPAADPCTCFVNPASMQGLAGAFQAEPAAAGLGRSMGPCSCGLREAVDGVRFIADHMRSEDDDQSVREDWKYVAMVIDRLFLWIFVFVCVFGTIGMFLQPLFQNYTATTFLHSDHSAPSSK
smiles,measurement,setting,value
O=C1c2cc(N3CCN4CCC3CC4)ccc2-c2cccc([18F])c21 [[^18F] II-15],"Absorption, brain residual",[1]; 5 min,6.03 ± 0.23 % ID/g wet weight
same,"Absorption, brain residual",[1]; 15 min,5.58 ± 0.50 % ID/g wet weight
same,"Absorption, brain residual",[1]; 30 min,5.25 ± 0.80 % ID/g wet weight
same,"Absorption, brain residual",[1]; 60 min,4.21 ± 0.22 % ID/g wet weight
same,"Absorption, brain residual",[1]; 90 min,2.32 ± 0.26 % ID/g wet weight
same,"Absorption, cerebellum",[1]; 5 min,5.83 ± 0.01 % ID/g wet weight
same,"Absorption, cerebellum",[1]; 15 min,5.10 ± 0.35 % ID/g wet weight
same,"Absorption, cerebellum",[1]; 30 min,4.53 ± 0.14 % ID/g wet weight
same,"Absorption, cerebellum",[1]; 60 min,2.69 ± 0.10 % ID/g wet weight
same,"Absorption, cerebellum",[1]; 90 min,1.53 ± 0.10 % ID/g wet weight
same,"Tissue/cerebellum Ratio, corpus striatum",[1]; 5 min,1.20
same,"Absorption, corpus striatum",[1]; 5 min,6.99 ± 0.31 % ID/g wet weight
same,"Tissue/cerebellum Ratio, corpus striatum",[1]; 15 min,1.28
same,"Absorption, corpus striatum",[1]; 15 min,6.55 ± 0.25 % ID/g wet weight
same,"Tissue/cerebellum Ratio, corpus striatum",[1]; 30 min,1.85
same,"Absorption, corpus striatum",[1]; 30 min,8.37±0.27 % ID/g wet weight
same,"Tissue/cerebellum Ratio, corpus striatum",[1]; 60 min,1.87
same,"Absorption, corpus striatum",[1]; 60 min,5.01 ± 0.31 % ID/g wet weight
same,"Tissue/cerebellum Ratio, corpus striatum",[1]; 90 min,2.9 and 2.86
same,"Absorption, corpus striatum",[1]; 90 min,4.37 ± 0.18 % ID/g wet weight
same,"Tissue/cerebellum Ratio, cortex",[1]; 5 min,1.24
same,"Absorption, cortex",[1]; 5 min,7.24 ± 0.33 % ID/g wet weight
same,"Tissue/cerebellum Ratio, cortex",[1]; 15 min,1.63
same,"Absorption, cortex",[1]; 15 min,8.31 ± 0.22 % ID/g wet weight
same,"Tissue/cerebellum Ratio, cortex",[1]; 30 min,2.07
same,"Absorption, cortex",[1]; 30 min,9.39±0.24 % ID/g wet weight
same,"Tissue/cerebellum Ratio, cortex",[1]; 60 min,2.29
same,"Absorption, cortex",[1]; 60 min,6.14 ± 0.34 % ID/g wet weight
same,"Tissue/cerebellum Ratio, cortex",[1]; 90 min,2.5 and 2.47
same,"Absorption, cortex",[1]; 90 min,3.77 ± 0.95 % ID/g wet weight
same,"Tissue/cerebellum Ratio, hippocampus",[1]; 5 min,0.99
same,"Absorption, hippocampus",[1]; 5 min,5.77 ± 0.17 % ID/g wet weight
same,"Tissue/cerebellum Ratio, hippocampus",[1]; 15 min,1.20
same,"Absorption, hippocampus",[1]; 15 min,6.12 ± 0.40 % ID/g wet weight
same,"Tissue/cerebellum Ratio, hippocampus",[1]; 30 min,1.39
same,"Absorption, hippocampus",[1]; 30 min,6.31±0.82 % ID/g wet weight
same,"Tissue/cerebellum Ratio, hippocampus",[1]; 60 min,2.36
same,"Absorption, hippocampus",[1]; 60 min,6.34 ± 0.72 % ID/g wet weight
same,"Tissue/cerebellum Ratio, hippocampus",[1]; 90 min,3.6 and 3.63
same,"Absorption, hippocampus",[1]; 90 min,5.54 ± 0.64 % ID/g wet weight
same,"Tissue/cerebellum Ratio, superior and inferior colliculus",[1]; 5 min,1.08
same,"Absorption, superior and inferior colliculus",[1]; 5 min,6.32 ± 0.67 % ID/g wet weight
same,"Tissue/cerebellum Ratio, superior and inferior colliculus",[1]; 15 min,1.28
same,"Absorption, superior and inferior colliculus",[1]; 15 min,6.53 ± 0.58 % ID/g wet weight
same,"Tissue/cerebellum Ratio, superior and inferior colliculus",[1]; 30 min,1.31
same,"Absorption, superior and inferior colliculus",[1]; 30 min,5.93 ± 0.52 % ID/g wet weight
same,"Tissue/cerebellum Ratio, superior and inferior colliculus",[1]; 60 min,1.45
same,"Absorption, superior and inferior colliculus",[1]; 60 min,3.90 ± 0.36 % ID/g wet weight
same,"Tissue/cerebellum Ratio, superior and inferior colliculus",[1]; 90 min,1.86
same,"Absorption, superior and inferior colliculus",[1]; 90 min,2.85 ± 0.10 % ID/g wet weight
same,"Tissue/cerebellum Ratio, thalamus",[1]; 5 min,0.98
same,"Absorption, thalamus",[1]; 5 min,5.74 ± 0.69 % ID/g wet weight
same,"Tissue/cerebellum Ratio, thalamus",[1]; 15 min,1.11
same,"Absorption, thalamus",[1]; 15 min,5.66 ± 0.34 % ID/g wet weight
same,"Tissue/cerebellum Ratio, thalamus",[1]; 30 min,1.28
same,"Absorption, thalamus",[1]; 30 min,5.80 ± 0.47 % ID/g wet weight
same,"Tissue/cerebellum Ratio, thalamus",[1]; 60 min,1.82
same,"Absorption, thalamus",[1]; 60 min,4.89 ± 0.04 % ID/g wet weight
same,"Tissue/cerebellum Ratio, thalamus",[1]; 90 min,2.10
same,"Absorption, thalamus",[1]; 90 min,3.19 ± 0.26 % ID/g wet weight
same,time of highest brain uptake in PET images,[2],15 min
same,difference in brain uptake between experimental group and control group,[3],no significant difference
same,logP,[4],1.64 ± 0.12
same,in vivo defluorination phenomenon (bone absorption),"[5]; 5-90 min, mice",relatively weaker
same,brain/blood ratio,[5]; 5 min,6.23
same,brain/blood ratio,[5]; 15 min,9.57 and 9.35
same,brain/blood ratio,[5]; 30 min,9.57
same,brain/blood ratio,[5]; 60 min,8.03
same,brain/blood ratio,[5]; 90 min,6.98
same,"Absorption Amount, blood",[5]; 5 min,1.43 ± 0.06 % ID/g wet weight
same,"Absorption Amount, blood",[5]; 15 min,1.24 ± 0.16 % ID/g wet weight
same,"Absorption Amount, blood",[5]; 30 min,1.03 ± 0.07 % ID/g wet weight
same,"Absorption Amount, blood",[5]; 60 min,0.68 ± 0.01 % ID/g wet weight
same,"Absorption Amount, blood",[5]; 90 min,0.52 ± 0.06 % ID/g wet weight
same,"Absorption Amount, bone",[5]; 5 min,3.02 ± 0.11 % ID/g wet weight
same,"Absorption Amount, bone",[5]; 15 min,4.55 ± 0.68 % ID/g wet weight
same,"Absorption Amount, bone",[5]; 30 min,4.84 ± 0.18 % ID/g wet weight
same,"Absorption Amount, bone",[5]; 60 min,7.27 ± 1.31 % ID/g wet weight
same,"Absorption Amount, bone",[5]; 90 min,7.65 ± 0.52 % ID/g wet weight
same,"Absorption Amount, brain",[5]; 5 min,8.98±0.41 % ID/g wet weight
same,"Absorption Amount, brain",[5]; 15 min,11.60±0.14 % ID/g wet weight
same,"Absorption Amount, brain",[5]; 30 min,9.86 ± 0.05 % ID/g wet weight
same,"Absorption Amount, brain",[5]; 60 min,5.46±0.27 % ID/g wet weight
same,"Absorption Amount, brain",[5]; 90 min,3.63±0.25 % ID/g wet weight
same,"Absorption Amount, heart",[5]; 5 min,8.37 ± 0.14 % ID/g wet weight
same,"Absorption Amount, heart",[5]; 15 min,4.45 ± 0.62 % ID/g wet weight
same,"Absorption Amount, heart",[5]; 30 min,3.56 ± 0.31 % ID/g wet weight
same,"Absorption Amount, heart",[5]; 60 min,2.19 ± 0.16 % ID/g wet weight
same,"Absorption Amount, heart",[5]; 90 min,1.71 ± 0.13 % ID/g wet weight
same,"Absorption Amount, kidney",[5]; 5 min,15.92 ± 0.24 % ID/g wet weight
same,"Absorption Amount, kidney",[5]; 15 min,11.54 ± 0.79 % ID/g wet weight
same,"Absorption Amount, kidney",[5]; 30 min,8.06 ± 0.69 % ID/g wet weight
same,"Absorption Amount, kidney",[5]; 60 min,4.85 ± 0.443 % ID/g wet weight
same,"Absorption Amount, kidney",[5]; 90 min,4.26 ± 0.19 % ID/g wet weight
same,"Absorption Amount, liver",[5]; 5 min,8.19 ± 1.19 % ID/g wet weight
same,"Absorption Amount, liver",[5]; 15 min,12.28 ± 1.96 % ID/g wet weight
same,"Absorption Amount, liver",[5]; 30 min,13.74 ± 1.36 % ID/g wet weight
same,"Absorption Amount, liver",[5]; 60 min,9.74 ± 0.07 % ID/g wet weight
same,"Absorption Amount, liver",[5]; 90 min,7.46 ± 0.19 % ID/g wet weight
same,"Absorption Amount, lung",[5]; 5 min,70.52 ± 7.86 % ID/g wet weight
same,"Absorption Amount, lung",[5]; 15 min,20.23 ± 1.51 % ID/g wet weight
same,"Absorption Amount, lung",[5]; 30 min,18.30 ± 1.56 % ID/g wet weight
same,"Absorption Amount, lung",[5]; 60 min,7.64 ± 0.99 % ID/g wet weight
same,"Absorption Amount, lung",[5]; 90 min,4.99 ± 0.45 % ID/g wet weight
same,"Absorption Amount, muscle",[5]; 5 min,5.51 ± 0.65 % ID/g wet weight
same,"Absorption Amount, muscle",[5]; 15 min,3.48 ± 0.40 % ID/g wet weight
same,"Absorption Amount, muscle",[5]; 30 min,2.36 ± 0.30 % ID/g wet weight
same,"Absorption Amount, muscle",[5]; 60 min,1.79 ± 0.06 % ID/g wet weight
same,"Absorption Amount, muscle",[5]; 90 min,1.32 ± 0.11 % ID/g wet weight
same,"Absorption Amount, spleen",[5]; 5 min,7.72 ± 0.65 % ID/g wet weight
same,"Absorption Amount, spleen",[5]; 15 min,11.58 ± 0.92 % ID/g wet weight
same,"Absorption Amount, spleen",[5]; 30 min,8.67 ± 0.48 % ID/g wet weight
same,"Absorption Amount, spleen",[5]; 60 min,4.08 ± 0.38 % ID/g wet weight
same,"Absorption Amount, spleen",[5]; 90 min,2.97 ± 0.25 % ID/g wet weight
